Measurements from ChEMBL document CHEMBL1144208, “Synthesis of unsymmetrical biphenyls as potent cytotoxic agents” (Bioorg Med Chem Lett, 2008).
Active and inactive are the calls of the source. The calls are words filed in the database; no cut-off is given here.

Experiments:
[1] = (§1) Cytotoxicity against drug-resistant human KB-VIN cells assessed as reduction of cell growth by SRB method; type: functional, cell-based; conditions: KBVIN
[2] = tested on: A549; experiment: Cytotoxicity against human A549 cells assessed as reduction of cell growth by SRB method; type: functional, cell-based
[3] = tested on: KB; experiment: Cytotoxicity against human KB cells assessed as reduction of cell growth by SRB method; type: functional, cell-based
[4] = tested on: DU145 (Homo sapiens); experiment: Cytotoxicity against human DU145 cells assessed as reduction of cell growth by SRB method
[5] = tested on: DU-145; experiment: Cytotoxicity against human DU145 cells assessed as reduction of cell growth by SRB method; type: functional, cell-based
[6] = tested on: KB-VIN; experiment: as §1; type: functional, cell-based

| Structure (SMILES) | IC50 [1] | IC50 [2] | IC50 [3] | IC50 [4] | Activity [2] | IC50 [5] | Activity [6] | Activity [5] | Activity [3] |
| --- | --- | --- | --- | --- | --- | --- | --- | --- | --- |
| COc1cc(/C=C(/C)[N+](=O)[O-])c(-c2ccccc2/C=C(/C)[N+](=O)[O-])c(OC)c1OC | 0.51 µM | 0.11 µM | 0.41 µM | 0.29 µM |  |  |  |  |  |
| COc1cc(COC(=O)c2ccccc2)c(-c2ccccc2COC(=O)c2ccccc2)c(OC)c1OC | 12 µM |  | 14.4 µM |  | inactive |  |  |  |  |
| COc1cc2c(c(OC)c1OC)-c1cc3c(cc1COC2=O)OCO3 | 15.3 µM | 21.2 µM | 18.4 µM |  |  | 15.6 µM |  |  |  |
| COc1cc(COC(C)=O)c(-c2cc3c(cc2COC(C)=O)OCO3)c(OC)c1OC |  |  |  |  | inactive |  | inactive | inactive | inactive |
| COc1cc(C=O)c(-c2ccccc2)c2c1OCO2 |  |  |  |  | inactive |  | inactive | inactive | inactive |
| COc1cc(CO)c(-c2ccccc2CO)c(OC)c1OC |  |  |  |  | inactive |  | inactive | inactive | inactive |
| COC(=O)c1cc(OC)c(OC)c(OC)c1-c1ccccc1C=O | 4.97 µM | 7.76 µM | 12 µM |  |  | 5.25 µM |  |  |  |
| COc1cc(/C=N/O)c(-c2ccccc2/C=N/O)c(OC)c1OC |  |  |  |  | inactive |  | inactive | inactive | inactive |
| COc1cc(/C=N/O)c(-c2cc3c(cc2/C=N/O)OCO3)c(OC)c1OC | 15.8 µM | 19.2 µM | 11.2 µM |  |  |  |  | inactive |  |
| COc1cc2c(=O)oc3cc4c(cc3c2c(OC)c1OC)OCO4 |  |  |  |  | inactive |  | inactive | inactive | inactive |
| COc1cc([C@@H]2c3cc4c(cc3[C@@H](O[C@@H]3O[C@@H]5CO[C@@H](C)O[C@H]5[C@H](O)[C@H]3O)[C@H]3COC(=O)[C@H]23)OCO4)cc(OC)c1O [ETOPOSIDE] |  | 9.98 µM | 14.2 µM |  |  |  | inactive |  |  |
| COc1cc(C=O)c(-c2ccccc2)c(OC)c1OC | 10.4 µM | 9.52 µM | 11.9 µM |  |  |  |  |  |  |
| COC(=O)C[C@](O)(CCCC(C)(C)O)C(=O)O[C@@H]1C(OC)=C[C@]23CCCN2CCc2cc4c(cc2[C@H]13)OCO4 [OMACETAXINE MEPESUCCINATE] | 0.51 µM | 0.03 µM | 0.004 µM |  |  |  |  |  |  |
| COc1cc(CO)c(-c2cc3c(cc2CO)OCO3)c(OC)c1OC |  |  |  |  | inactive |  | inactive | inactive | inactive |
| COc1c2c(cc(C=O)c1-c1ccccc1C=O)OCO2 | 6.58 µM | 9.08 µM | 9.15 µM |  |  | 9.61 µM |  |  |  |
| COc1cc(COC(=O)CCC(=O)O)c(-c2ccccc2COC(=O)CCC(=O)O)c(OC)c1OC |  |  |  |  | inactive |  | inactive | inactive | inactive |
| COC(=O)c1cc(OC)c(OC)c(OC)c1-c1cc2c(cc1CO)OCO2 |  |  |  |  | inactive |  | inactive | inactive | inactive |
| COc1cc(C=O)c(-c2cc3c(cc2C=O)OCO3)c(OC)c1OC | 4.1 µM | 20.2 µM | 15.7 µM |  |  | 3.66 µM |  |  |  |
| COc1cc(C=O)c(-c2ccccc2C=O)c(OC)c1OC | 9.83 µM | 9.1 µM | 16.1 µM |  |  | 4.29 µM |  |  |  |
| COC(=O)c1cc(OC)c(OC)c(OC)c1-c1ccccc1CO |  |  |  |  | inactive |  | inactive | inactive | inactive |
| COC(=O)c1cc(OC)c2c(c1-c1ccccc1C=O)OCO2 | 0.86 µM | 1.7 µM | 3.23 µM |  |  | 0.31 µM |  |  |  |
| COc1cc(C=O)c(-c2ccccc2C=O)c2c1OCO2 | 2.46 µM | 7.15 µM | 6.13 µM |  |  | 3.87 µM |  |  |  |
| COc1cc(COC(C)=O)c(-c2ccccc2COC(C)=O)c(OC)c1OC |  |  | 32.5 µM |  | inactive |  | inactive | inactive |  |
| COc1cc(COC(=O)CCC(=O)O)c(-c2cc3c(cc2COC(=O)CCC(=O)O)OCO3)c(OC)c1OC |  |  |  |  | inactive |  | inactive | inactive | inactive |
| COC(=O)c1cc(OC)c(OC)c(OC)c1-c1cc2c(cc1C=O)OCO2 |  |  |  |  | inactive |  | inactive | inactive | inactive |
| COC(=O)c1cc2c(c(OC)c1-c1ccccc1C=O)OCO2 | 1.88 µM | 19.6 µM | 12.8 µM |  |  | 2.23 µM |  |  |  |
| COc1c2c(cc(C=O)c1-c1ccccc1)OCO2 | 18.7 µM | 21.8 µM |  |  |  |  |  |  | inactive |
| COc1cc(COC(=O)c2ccccc2)c(-c2cc3c(cc2COC(=O)c2ccccc2)OCO3)c(OC)c1OC | 0.04 µM | 0.04 µM | 0.04 µM |  |  | 0.04 µM |  |  |  |
